Laboratory results taken from patent US20100330049A1, “METHOD FOR GENERATING ISLET BETA CELLS FROM DEDIFFERENTIATED EXOCRINE PANCREATIC CELLS” (Vrije Universiteit Brussel, priority 2008, published 2010).

Assays:
Type in all cases: cell-based, rat
acinar cells = test: acinar-to-beta cell conversion in monolayer culture with differentiation factors (immunocytochemical cell counts); conditions: for toxic effects on the epithelial monolayers: Jagged1 2 μg/ml, Dll4 5 μg/ml, 3 days culture; for beta cell neogenesis (acino-insular conversion): exposure of EGF and LIF treated cells to Notch1 ligands; for expression of Ngn3, Pdx1 and insulin / reduction of the number of newly formed beta cells: ligands immobilized on culture plates, EGF/LIF-treated acinar cells; for expression of Pdx1 during 72 h exposure to EGF and LIF (FIG. 2C) / expression of insulin during 72 h exposure to EGF and LIF (FIG. 2E) / re-expression of Ngn3 during 72 h exposure to EGF and LIF (FIG. 2A): n=7, compared to EGF and LIF controls
Description: Male 10-12 week old Wistar rats (Charles River Laboratories) weighing 250-300 g were used for the isolation of cells from the pancreas. Pancreata were partially dissociated with collagenase and exocrine acini were purified by centrifugal elutriation as published before (Rooman et al., 2000 Diabetologia 43:907-914). All animal experimentation was approved by the Ethical Committee of the Free University of Brussels.
Acinar cells were pre-cultured for 4 days in bacteriological Petri dishes (Nunc) in suspension culture in RPMI-1640 Glutamax-I medium supplemented with 10% fetal bovine serum (FBS, Invitrogen), penicillin (75 mg/l) (Continental Pharma) and antibiotics (Sigma, St Louis, Mo., USA). Geneticin Sulphate (50 μg/ml) (Sigma) was used to suppress fibroblast overgrowth in the culture. Medium was replaced daily during this pre-culture period. At the end of the pre-culture, cells were treated with alloxan (10 mM, Sigma) for 10 min at 37° C. to remove contaminating beta cells, and transferred to 24-well plates (Falcon, BD Biosciences) to form adherent cultures. Adherent monolayers were further cultured with RPMI supplemented with 1% FBS and antibiotics (controls). For growth factor stimulation of neogenesis this medium was supplemented with 50 ng/ml human recombinant epidermal growth factor (EGF) (Sigma,) and 40 ng/ml recombinant mouse leukemia inhibitory factor (LIF) (Sigma) (Baeyens et al. Diabetologia 48:49-57.). Stimulation of Notch signal transduction was performed using the recombinant human ligands Jagged1 (2 μg/ml, R&D Systems) and Dll4 (5 μg/ml, R&D Systems). For effective stimulation, the ligands were immobilized to the bottom of the multiwell plates prior to monolayer formation. Cell monolayers were analyzed after a culture period of 3 days in the latter media. […] Notch signaling inhibition was achieved using a recombinant form of the rat Notch1 extracellular domain (Notch1-EC, 10 μg/ml, R&D Systems). […] Proliferation was performed by bromo-deoxyuridin (BrdU) (Sigma) pulse labeling of 6 hours.
Immunocytochemical staining of the monolayers was performed directly in the 24-well plates. For this purpose, the cell monolayers were fixed for 10 min with 4% buffered formaldehyde followed by 20 min methanol (−20° C.) for cell permeabilization. Tissues were fixed with the same fixative for 4 hours and processed for paraffin embedding. Paraffin sections were used for immunostaining as described (Bouwens et al. 1994 Diabetes 43:1279-1283). Primary antibodies used in this study are polyclonal anti-insulin (C. Van Schravendijk, VUB, Brussels) (Bouwens et al. 1994 Diabetes 43:1279-1283; Bouwens and De 1996. J. Histochem. Cytochem. 44:947-951), polyclonal anti-rat C-peptide-I (O. D. Madsen, Hagedorn Research Institute, Gentofte, Denmark) (Blume et al. 1992. Mol. Endocrinol. 6:299-307), polyclonal anti-Pdx1 (O. D. Madsen) (Rooman et al. 2000 Diabetologia 43:907-914), polyclonal anti-Ngn3 (Schwitzgebel et al. 2000. Development 127:3533-3542), monoclonal anti-cytokeratin-20 (CK20) (Novocastra) (Bouwens et al. 1994 Diabetes 43:1279-1283; Bouwens and De 1996 J. Histochem. Cytochem. 44:947-951), monoclonal anti-synaptophysin (Novocastra), polyclonal anti-MafA (Bethyl Laboratories) (Nishimura et al. 2006 Dev. Biol. 293:526-539), polyclonal anti-Glut2 (Wak-Chemie), polyclonal anti-Mist1 (SF Konieczny) (Pin et al. 2000 Anat. Rec. 259:157-167), polyclonal anti-luciferase (Promega Benelux B. V.), polyclonal anti-IAPP (Advanced Chemtech), polyclonal anti-ChromograninA (Tebu-Bio), anti-BrdU (MP Biomedicals) and polyclonal anti-α-amylase (Sigma). Secondary antibodies conjugated with fluorescein isothiocyanate, tetramethylrodamine isothiocyanate or Cy5 (Jackson Immunoresearch) were used as described previously (Gu et al., 2002 Development 129:2447-2457). DNA was visualized using Hoechst 33342 (Invitrogen).

Hes1 mRNA = test: knockdown efficiency of shRNA viruses, quantitative RT-PCR: Hes1 mRNA; conditions: corrected for actin, normalized to control virus Le-Scrambled-DsRed, n = 3
Description: (§1) Specific RNAi target sequences were developed using dedicated software available through the Whitehead Institute for Biomedical Research website (http://jura.wi.mit.edu/bio/) (Yuan et al. 2004 Nucleic Acids Res. 32:W130-W134). Corresponding oligo DNA molecules (Invitrogen) were cloned in the BglII and HindIII sites of the pSuper.basic vector (Oligoengine). Insert-containing clones were PCR-selected and sequenced. DNA from clones containing correct inserts was cut with EcoRI-ClaI, which released a DNA fragment containing the H1 promoter and the cloned oligo duplex, which was subsequently subcloned in the EcoRI-ClaI sites of the pTrip vector containing a DsRed reporter (Wiznerowicz and Trono 2003, J. Virol. 77:8957-8961). Screening for RNAi activity of the constructs was performed as follows: AR42J-B13 cells were plated at 70% confluency in 24 well plates at day 0. After allowing the cells to attach, 500 ng DNA of the appropriate pTrip constructs was transfected per well. After an additional 24 hours, cells were processed for quantitative RT-PCR analysis, in which 500 ng total RNA was used per condition.
(§2) The data illustrated in Table 7 represent the efficiency of knockdown of the different shRNA viruses, measured by quantitative RT-PCR. All samples are corrected for RNA input (endogenous control: actin) and normalized to conditions transduced with control virus (Le-Scrambled-DsRed). […]

Notch1 mRNA = test: knockdown efficiency of shRNA viruses, quantitative RT-PCR: Notch1 mRNA; conditions: corrected for actin, normalized to control virus Le-Scrambled-DsRed, n = 3
Description: as §1, §2

Substance | toxic effects on the epithelial monolayers (acinar cells) | beta cell neogenesis (acino-insular conversion) (acinar cells) | expression of Ngn3, Pdx1 and insulin (acinar cells) | reduction of the number of newly formed beta cells (acinar cells) [%] | expression of Pdx1 during 72 h exposure to EGF and LIF (FIG. 2C) (acinar cells) | expression of insulin during 72 h exposure to EGF and LIF (FIG. 2E) (acinar cells) | re-expression of Ngn3 during 72 h exposure to EGF and LIF (FIG. 2A) (acinar cells) | Hes1 mRNA expression (Mean ± SEM) (Hes1 mRNA) | Notch1 mRNA expression (Mean ± SEM) (Notch1 mRNA) | higher number of insulin-positive cells (acinar cells; Notch1-EC added to EGF and LIF) [fold] | cells adopting a beta cell phenotype (acinar cells; acinar cell culture, 0.5% in control conditions) | proportion of cells positive for Ngn3, Pdx1 and insulin (acinar cells; excess Notch1-EC in culture medium with EGF and LIF)
Dll4: recombinant human Notch ligand, immobilized to the plate bottom | no toxic effects | near complete abrogation | strongly inhibited | 80 | prevents this expression | prevents this expression | almost completely abrogates this pattern | – | – | – | – | –
Jagged1: recombinant human Notch ligand, immobilized to the plate bottom | no toxic effects | near complete abrogation | strongly inhibited | 80 | prevents this expression | prevents this expression | almost completely abrogates this pattern | – | – | – | – | –
Le-Scrambled-DsRed: negative control RNAi lentivirus, shScrambled GGUAUCUACUAGAUGUACU (SEQ ID NO:3), DsRed reporter | – | – | – | – | – | – | – | 100.0 ± 0.0 | 100.0 ± 0.0 | – | – | –
Notch1-EC: recombinant form of the rat Notch1 extracellular domain, Notch signaling inhibitor (R&D Systems) | – | – | – | – | amplifies the number of cells expressing Pdx1 | amplifies the number of insulin-positive cells | enhances the potency of the differentiation factors | – | – | 3 | more than 30% | marked increase
